Structures are written as SMILES.

The experiment has as its system chromogenic deoxyribozyme, optimized variant (Chro 4, SEQ ID NO: 39). Briefly: Self-phosphorylation kinetics of chromogenic deoxyribozyme with 4-NPP (ligation assay). The experiment is classed as biochemical. The note with it: self-phosphorylation with 4-NPP as substrate; 200 mM KCl, 1 mM ZnCl2, 50 mM HEPES pH 7.4.

`O=[N+]([O-])c1ccc(OP(=O)(O)O)cc1` [4-NPP, 4-nitrophenyl phosphate]: the catalytic efficiency is recorded as ~10^3 M^-1 min^-1.

For the origin of these results see patent publication EP4520824A1, “DEO[…] GENERATES FL[…] USES THEREOF” (Ústav organické chemie a biochemie Akademie ved Ceske …, priority 2023, dated 2025).
